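Each compound was tested at five concentrations against cells in 96-well plates for 48 hours. At the GI50, growth is halved.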 Calls of active or inactive are those of the source. Cut-off read from the data, not from the text of the source: active = GI50 up to about 1.1 µM and inactive = higher.
How the values were obtained:
Assay in all cases: NCI-60 cell line screen, 48 h
KM12 = tested on: KM12
MDA-MB-435 = tested on: MDA-MB-435
M14 = tested on: M14
SF-539 = tested on: SF-539
HOP-92 = tested on: HOP-92
A549 = tested on: A549
OVCAR-8 = tested on: OVCAR-8
UO-31 = tested on: UO-31
RPMI-8226 = tested on: RPMI-8226
CAKI-1 = tested on: CAKI-1
U-251 = tested on: U-251
OVCAR-5 = tested on: OVCAR-5
SK-MEL-2 = tested on: SK-MEL-2
SNB-75 = tested on: SNB-75
MDA-N = tested on: MDA-N
UACC-257 = tested on: UACC-257
HL-60 = tested on: HL-60
RXF 393 = tested on: RXF 393
UACC-62 = tested on: UACC-62
EKVX = tested on: EKVX
COLO 205 = tested on: COLO 205
OVCAR-4 = tested on: OVCAR-4
T47D = tested on: T47D
SR = tested on: SR
CCRF-CEM = tested on: CCRF-CEM
SK-MEL-28 = tested on: SK-MEL-28
BT-549 = tested on: BT-549
LOX IMVI = tested on: LOX IMVI
SK-OV-3 = tested on: SK-OV-3
OVCAR-3 = tested on: OVCAR-3
786-0 = tested on: 786-0
HT-29 = tested on: HT-29
NCI-H460 = tested on: NCI-H460
IGROV-1 = tested on: IGROV-1
HCT-116 = tested on: HCT-116
HCT-15 = tested on: HCT-15
ACHN = tested on: ACHN
DU-145 = tested on: DU-145
PC-3 = tested on: PC-3
MDA-MB-231 = tested on: MDA-MB-231
SN12C = tested on: SN12C
TK-10 = tested on: TK-10
SF-295 = tested on: SF-295
SW-620 = tested on: SW-620
NCI/ADR-RES = tested on: NCI/ADR-RES
MCF7 = tested on: MCF7
SNB-19 = tested on: SNB-19
SK-MEL-5 = tested on: SK-MEL-5
K562 = tested on: K562
HOP-62 = tested on: HOP-62
NCI-H23 = tested on: NCI-H23
MOLT-4 = tested on: MOLT-4
Hs-578T = tested on: Hs-578T
HCC 2998 = tested on: HCC 2998
NCI-H226 = tested on: NCI-H226
NCI-H522 = tested on: NCI-H522
A498 = tested on: A498
SF-268 = tested on: SF-268
Malme-3M = tested on: Malme-3M

COc1cc(Br)cc2cc(C3=CSC4=NCCN34)c(=O)oc12
GI50 (KM12): 20 µM (inactive) | GI50 (MDA-MB-435): 17.8 µM (inactive) | GI50 (M14): 22.2 µM (inactive) | GI50 (SF-539): 19.9 µM (inactive) | GI50 (HOP-92): 17.1 µM (inactive) | GI50 (A549): 21.3 µM (inactive) | GI50 (OVCAR-8): 17.8 µM (inactive) | GI50 (UO-31): 19.3 µM (inactive) | GI50 (RPMI-8226): 22.7 µM (inactive) | GI50 (CAKI-1): 34.7 µM (inactive) | GI50 (U-251): 18.1 µM (inactive) | GI50 (OVCAR-5): 23.3 µM (inactive) | GI50 (SK-MEL-2): 20.3 µM (inactive) | GI50 (SNB-75): 21 µM (inactive) | GI50 (MDA-N): 18.5 µM (inactive) | GI50 (UACC-257): 25.3 µM (inactive) | GI50 (HL-60): 29.4 µM (inactive) | GI50 (RXF 393): 17.5 µM (inactive) | GI50 (UACC-62): 17.8 µM (inactive) | GI50 (EKVX): 17.7 µM (inactive) | GI50 (COLO 205): 20.7 µM (inactive) | GI50 (OVCAR-4): 18.2 µM (inactive) | GI50 (T47D): 17.5 µM (inactive) | GI50 (SR): 21.9 µM (inactive) | GI50 (CCRF-CEM): 25.8 µM (inactive) | GI50 (SK-MEL-28): 29.5 µM (inactive) | GI50 (BT-549): 22 µM (inactive) | GI50 (LOX IMVI): 18.2 µM (inactive) | GI50 (SK-OV-3): 27.9 µM (inactive) | GI50 (OVCAR-3): 16.8 µM (inactive) | GI50 (786-0): 18.4 µM (inactive) | GI50 (HT-29): 19.1 µM (inactive) | GI50 (NCI-H460): 19.9 µM (inactive) | GI50 (IGROV-1): 17.6 µM (inactive) | GI50 (HCT-116): 17.8 µM (inactive) | GI50 (HCT-15): 17.2 µM | GI50 (ACHN): 28.3 µM (inactive) | GI50 (DU-145): 17.8 µM (inactive) | GI50 (PC-3): 18.3 µM (inactive) | GI50 (MDA-MB-231): 19.6 µM (inactive) | GI50 (SN12C): 17.5 µM (inactive) | GI50 (TK-10): 18.8 µM (inactive) | GI50 (SF-295): 19.4 µM (inactive) | GI50 (SW-620): 25.3 µM (inactive) | GI50 (NCI/ADR-RES): 65.9 µM (inactive) | GI50 (MCF7): 18 µM (inactive) | GI50 (SNB-19): 18.1 µM (inactive) | GI50 (SK-MEL-5): 20 µM (inactive) | GI50 (K562): 26.5 µM (inactive) | GI50 (HOP-62): 19.3 µM (inactive) | GI50 (NCI-H23): 20.1 µM (inactive) | GI50 (MOLT-4): 20 µM (inactive)

CS(=O)(=O)OCCN(CCOS(C)(=O)=O)c1ccc(/C=N/c2ccc(-c3csc(Cc4ccccc4)n3)cc2)c(Cl)c1
GI50 (KM12): 28.6 µM (inactive) | GI50 (MDA-MB-435): 21 µM (inactive) | GI50 (M14): 25.3 µM (inactive) | GI50 (SF-539): 22.8 µM (inactive) | GI50 (HOP-92): 0.596 µM (active) | GI50 (Hs-578T): 28.4 µM (inactive) | GI50 (A549): 11.6 µM (inactive) | GI50 (OVCAR-8): 27.4 µM (inactive) | GI50 (UO-31): 26.4 µM (inactive) | GI50 (RPMI-8226): 23.8 µM (inactive) | GI50 (CAKI-1): 1.23 µM (inactive) | GI50 (U-251): 28.2 µM (inactive) | GI50 (OVCAR-5): 5.01 µM (inactive) | GI50 (SK-MEL-2): > 46 µM (inactive) | GI50 (SNB-75): 15.5 µM (inactive) | GI50 (HCC 2998): 10.9 µM (inactive) | GI50 (MDA-N): 21.6 µM (inactive) | GI50 (NCI-H226): 0.218 µM (active) | GI50 (UACC-257): 3.83 µM (inactive) | GI50 (NCI-H522): > 43.4 µM (inactive) | GI50 (A498): 0.102 µM (active) | GI50 (HL-60): 11.1 µM (inactive) | GI50 (RXF 393): 33.7 µM (inactive) | GI50 (SF-268): 27.4 µM (inactive) | GI50 (UACC-62): 6.5 µM (inactive) | GI50 (EKVX): 36.5 µM (inactive) | GI50 (COLO 205): 15.1 µM (inactive) | GI50 (OVCAR-4): 31.7 µM (inactive) | GI50 (T47D): 30.8 µM (inactive) | GI50 (SR): 23.7 µM (inactive) | GI50 (CCRF-CEM): 10.1 µM (inactive) | GI50 (SK-MEL-28): 45.1 µM (inactive) | GI50 (LOX IMVI): 20.1 µM (inactive) | GI50 (SK-OV-3): 43.5 µM (inactive) | GI50 (OVCAR-3): 17.7 µM (inactive) | GI50 (786-0): 23 µM (inactive) | GI50 (HT-29): 21.9 µM (inactive) | GI50 (NCI-H460): 0.387 µM (active) | GI50 (IGROV-1): 18.2 µM (inactive) | GI50 (HCT-116): 19.5 µM (inactive) | GI50 (HCT-15): 30.3 µM | GI50 (ACHN): 30.7 µM (inactive) | GI50 (DU-145): 30.4 µM (inactive) | GI50 (PC-3): 22.5 µM (inactive) | GI50 (Malme-3M): 37.1 µM (inactive) | GI50 (MDA-MB-231): 25 µM (inactive) | GI50 (SN12C): 28.8 µM (inactive) | GI50 (TK-10): 3.93 µM (inactive) | GI50 (SF-295): 30.2 µM (inactive) | GI50 (SW-620): 31.8 µM (inactive) | GI50 (NCI/ADR-RES): 23.2 µM (inactive) | GI50 (MCF7): 2.65 µM (inactive) | GI50 (SNB-19): > 45.3 µM (inactive) | GI50 (SK-MEL-5): 16.4 µM (inactive) | GI50 (K562): 12.5 µM (inactive) | GI50 (HOP-62): 13 µM (inactive) | GI50 (NCI-H23): 23.5 µM (inactive) | GI50 (MOLT-4): 17.2 µM (inactive)

— ChEMBL document CHEMBL1201862, “PubChem BioAssay data set” (2004)
